Data set [1] deals with mouse dorsal root ganglia (DRG) neurons. Description: Calcium mobilization in primary DRG sensory neurons, basal (unstimulated). To be noted: 10 μM. It counts as cell-based. As to the method: (§1) Male C57B16 mice (6-8 weeks) were used to produce primary cultures of dorsal root ganglia (DRG) sensory neurons for calcium flux experiments, and to perform studies of colorectal distention and intestinal isotonic contraction. All procedures were approved by Institutional Animal Care Committees (CEEA 122).
To determine whether C12-Asn-GABA or C12-Asn-BABA is capable of signaling to sensory nerves, calcium mobilization studies were performed on primary cultures of mouse dorsal root ganglia (DRG) neurons. […] The same experiments were thereafter performed in neurons activated by either an agonist of the receptor calcium channel TRPV1 (capsaicin) or by a mix of agonists (histamine, serotonin and bradykinin) for G protein coupled receptors (GPCR) implicated in visceral hypersensitivity. Exposure of neurons to either capsaicin (125 nM) or the mix of GPCR agonists (histamine, bradykinin, serotonin, 10 μM each) induced an increase in calcium flux as shown by the higher % of responding neurons and amplitude of the response (ΔF/F) compared to the vehicle (FIG. 4A, 4B). […] To investigate whether the inhibitory effect of C12-Asn-GABA was associated to the GABA residue, neurons were treated with saclofen (10, 50, and 100 μM), a competitive antagonist of the GABAB receptor. […]
(In general: A change in cytosolic calcium serves as a functional read-out for many receptors and channels.)

In data set [2] the test system is mouse sensory neurons activated by capsaicin. Description: Calcium flux in sensory neurons activated by capsaicin (TRPV1 agonist). The format is cell-based. As to the method: (§2) FIG. 4: C12-Asn-GABA inhibits neuronal activation via the GABA B receptor. Amplitude of intracellular calcium mobilization (ΔF/F; right panel) in mouse sensory neurons and percentage of responding neurons (left panel) pretreated with increasing amounts of C12-Asn-GABA (black circle) or vehicle (HBSS; white circle) and treated with capsaicin (125 nM; A) or a mix of G protein coupled receptor agonists (histamine, serotonin and bradykinin 10 μM each; B). Data are represented as mean±SEM; n=4 independent experiments of 3 wells per condition and 30-80 neurons per well. […] Percentage of responding neurons pretreated with increasing amounts of saclofen (black circle) or vehicle (HBSS; white circle) and treated with C12-Asn-GABA (10 μM) and capsaicin (125 nM; C) or a mix of G protein coupled receptor agonist (histamine, serotonin and bradykinin 10 μM each; D). Data are represented as mean±SEM; n=4 independent experiments of 3 wells per condition and 30-80 neurons per well.
FIG. 7: C14-Asn-GABA inhibits neuronal activation by capsaicin. Amplitude of intracellular calcium mobilization (F/F; A) in mouse sensory neurons and percentage of responding neurons (B) pretreated with 10 μM of C14-Asn-GABA (black bar) or vehicle (HBSS; white bar) and treated with capsaicin (125 nM). Data are represented as mean±SEM; n=3 independent experiments of 3 wells per condition and 35-82 neurons per well.
as §1
To determine whether C12-Asn-GABA or C12-Asn-BABA is capable of signaling to sensory nerves, calcium mobilization studies were performed on primary cultures of mouse dorsal root ganglia (DRG) neurons. […]

For data set [3], the system named is mouse sensory neurons activated by mix of GPCR agonists (histamine, serotonin, bradykinin). Description: Calcium flux in sensory neurons activated by mix of GPCR agonists. It counts as cell-based. The note with it: serotonin 10 μM each, pretreatment with increasing amounts of compound. The protocol: as §2
Male C57B16 mice (6-8 weeks) were used to produce primary cultures of dorsal root ganglia (DRG) sensory neurons for calcium flux experiments, and to perform studies of colorectal distention and intestinal isotonic contraction. All procedures were approved by Institutional Animal Care Committees (CEEA 122). […]

For the next data set, the system named is Caco-2 cells. Description: Absorption across Caco-2 monolayer in transwell chambers. The format is in vitro ADME, human. The note with it: 800 ng apical, 24 h, LC-HRMS. As to the method:
FIG. 5: C12-Asn-GABA crosses the epithelial barrier without modifying epithelial cells physiology. Caco-2 cells were cultivated into transwell chambers. After treatment with C12-Asn-GABA (800 ng) at the apical side, C12-Asn-GABA was quantified inside the cells and both the apical and basolateral compartments by LC-MS/MS (A); data are represented as mean±SEM, n=3 experiments of 3 wells per condition. Extracted ion chromatogram at the exact mass of GABA (104.0702 m/z) with a mass accuracy of 5 ppm of the GABA commercial standard (GABA (Std.) and apical and basolateral compartments after loading or not Caco-2 cells with 800 ng of GABA at the apical site (B); representation of one well, n=3 experiments of 3 wells per condition. Paracellular permeability assessed by the passage of FITC-dextran loaded at the apical side (C) and CXCL8 secretion assessed by ELISA (D) were monitored after treatment of Caco-2 cells at the apical side with C12-Asn-GABA (10 μM); data are represented as mean±SEM, n=3 experiments of 3 wells per condition. […]
Caco-2 cells were grown in Glutamax DMEM (Gibco, Invitrogen life technologies, Paisley, UK) supplemented with 10% heat-inactivated fetal bovine serum (FBS) (Gibco, Invitrogen life technologies, Paisley, UK), 1% nonessential amino acids and 1% antibiotics (100 U/ml penicillin and […] streptomycin (Gibco, Invitrogen life technologies, Grand Island, N.Y., USA) at 37° C. in a 5% C02 water-saturated atmosphere. Cells were seeded on Transwell inserts (Costar, Sigma-Aldrich, Saint-Quentin Fallavier, France) and absorption studies of C12-Asn-GABA and GABA were performed 16 days later. These compounds were quantified by LC-MS/MS in both apical and basolateral chambers as well as in cells. The effect of C12-Asn-GABA (1-100 μM) on paracellular permeability was also measured by mucosal-to-serosal flux of 4 kDa Fluorescein Isothiocyanate (FITC)-labelled dextran as previously described^31. […]
The initial barrier for any drug absorption is the intestinal epithelial cell wall. […] The transport of GABA alone across the cell monolayer was also assessed. […]

Data set [4] concerns capsaicin-induced visceral hypersensitivity. Description: Capsaicin-induced visceral hypersensitivity, visceromotor response to colorectal distension. To be noted: oral 25 mg/kg, 4 hours before intracolonic capsaicin 100 μg/mouse. The format is in vivo, mouse. The protocol: FIG. 6: C12-Asn-GABA inhibits capsaicin-induced visceral hypersensitivity without altering Intestinal contraction. Mice received intracolonic administration of C12-Asn-GABA (10 μM; black symbols) or vehicle (40% ethanol; white symbols) and 30 minutes or 4 hours later colon (A) and blood (B) were harvested in order to quantify C12-Asn-GABA by LC-MS/MS. Data are expressed as mean±SEM, n=8 mice per group. […] Mice received intracolonic administration of C12-Asn-GABA (10 μM; black symbols) or vehicle (40% ethanol; white symbols) and 30 minutes or 4 hours later an intracolonic administration of capsaicin (100 μg/mouse; square) or its vehicle (40% ethanol; circle). Fifteen minutes after capsaicin or vehicle treatment, visceromotor response (VMR) to increasing pressures of colorectal distension was performed. Data are expressed as mean±SEM, n=7-8 mice per group. […] Ex vivo measurement of duodenal mechanical contraction frequency (B) and amplitude (C) in response to Krebs-Ringer solution (control; white bar), to DMSO 0.2% (vehicle; gray bar) or to C12-Asn-GABA (10 μM; black bar). Data are expressed as mean±SEM, n=5-6 per group. Statistical analysis was performed using Kruskal-Wallis analysis of variance and subsequent Dunn's post hoc test.
FIG. 8: Trimebutine maleate has no effect on capsaicin-induced visceral hypersensitivity. Mice received an oral treatment with vehicle (PEG200, white circle) or with trimebutine maleate (25 mg/kg, black circle) and 4 hours later an intracolonic administration of capsaicin (100 μg/mouse; black and white circle). Fifteen minutes after capsaicin, visceromotor response (VMR) to increasing pressures of colorectal distension was performed. Data are expressed as mean±SEM, n=7-8 mice per group. […]
In a first set of experiment, we assessed the ability of the C12-Asn-GABA to cross the epithelial barrier, in vivo. […] The impact of C12-Asn-GABA on visceral hypersensitivity was assessed by measuring the visceromotor responses (VMR) to colorectal distension (CRD). […]

`CCCCCCCCCCCC(=O)N[C@@H](CC(N)=O)C(=O)NC(C)CC(=O)O` (stereo partly drawn) [C12-Asn-BABA, C12-Asn-β-aminobutyric]: the “calcium mobilization under basal (unstimulated) conditions” value in data set [1] is given as “None of the isomers (10 μM) induced calcium mobilization”. The “calcium flux increase induced by capsaicin (% responding neurons, amplitude ΔF/F)” value in data set [2] (capsaicin 125 nM, pretreatment with increasing amounts of compound) is “had no effect”. Moreover, the “calcium flux increase induced by mix of GPCR agonists (% responding neurons, amplitude ΔF/F)” value in data set [3] is listed as “had no effect”.
`CCCCCCCCCCCCCC(=O)NC(CC(N)=O)C(=O)NCCCC(=O)O` (stereo not drawn) [C14-Asn-GABA]: in data set [2] (10 μM, pre-treated 5 minutes before capsaicin 125 nM), the “calcium flux increase induced by capsaicin (amplitude, % responding neurons)” value is “prevented by C14-Asn-GABA pretreatment”.
With `NCCCC(=O)O` [GABA, gamma-Aminobutyric acid, reference compound], the “presence in the basal chamber” value in the data set on Caco-2 cells is on record as “not detected”.
On to “trimebutine maleate [reference compound]”, for which, in data set [4], the “hypersensitivity induced by capsaicin (VMR to CRD)” value is “has no effect”.

These data come from patent US11912645B2, “Lipopeptide compounds for the treatment of pain disorders” (INSERM (Institut National de la Santé et de la Recherche …, priority 2017, dated 2024).
